According to US8058243B2, “Method for treating a brain cancer with ifenprodil” (HSC Research and Development Limited Partnership, priority 2006, dated 2011):
Structures can show the parent of a compound that is named as a salt. Where two headings read alike, the source gives them in different places.

System: murine neural precursor cells (neurosphere cultures)
Assay: HTS of LOPAC library against secondary neurosphere cultures, MTT proliferation assay at 3 μM, day 7 (z score, P value)
Type: cell-based, mouse
[1] = LOPAC primary screen, neurosphere MTT proliferation, 3 μM, day 7
[2] = yes/no: significantly inhibited neurosphere proliferation in primary screen
[3] = LOPAC library screen, 3 μM, MTT, neurosphere cultures
[4] = LOPAC screen, neurosphere MTT proliferation, 3 μM, day 7
[5] = yes/no: significantly inhibited neurosphere proliferation (P<0.01) in primary screen
[6] = yes = significantly inhibited neurosphere proliferation (P<0.01) in the primary screen
[7] = LOPAC library screen at 3 μM, secondary neurosphere cultures, MTT
[8] = LOPAC library screen, 3 μM, MTT, secondary neurosphere cultures, day 7
[9] = yes/no: significantly inhibited neurosphere proliferation (P<0.01) in the primary screen
[10] = primary LOPAC screen, 3 μM, MTT, neurosphere proliferation
[11] = yes/no: significantly inhibited neurosphere proliferation in the primary screen
[12] = LOPAC library screen at 3 μM, MTT, secondary neurosphere cultures, screened in singlets

CCCCCCCCCCCCCCCCCCNC(=O)OCC(COP(=O)([O-])OCC[n+]1ccsc1)OC (stereo not drawn) [CV-3988]
Z Score: −0.4371
Z score [1]: −0.437
Activity [2]: no

Cl.OC[C@H]1NC[C@H](O)[C@@H](O)[C@@H]1O [1-Deoxynojirimycin hydrochloride]
Z Score [3]: 1.242
Z score [4]: 1.242
Activity [5]: no

O=C(O)CC[N+](=O)[O-] [3-Nitropropionic acid]
Z Score: −0.5631
Z score [1]: −0.563
Activity [6]: no

COc1ccccc1N1CCN(CCCCN2C(=O)c3ccccc3C2=O)CC1 [NAN-190 hydrobromide]
Z Score [7]: −0.6186
Z score [1]: −0.619
Activity [6]: no

CN1CCc2cc(Cl)c(O)cc2[C@@H](c2ccccc2)C1.Cl [R(+)-SCH-23390 hydrochloride]
Z Score [3]: 1.375
Z score [4]: 1.375
Activity [5]: no

N=c1ccn2c(n1)O[C@H]1[C@H](O)[C@@H](CO)O[C@H]12 [Ancitabine hydrochloride]
Z Score [8]: −9.951
Z score [1]: −9.951
Activity [6]: yes

COCCc1ccc(OCC(O)CNC(C)C)cc1.O=C(O)C(O)C(O)C(=O)O (stereo not drawn) [(B1)-Metoprolol (+)-tartrate]
Z Score: −0.2689

Cn1cnc2c(NCc3ccccc3)nc(NCCO)nc21 [Olomoucine]
Z Score (168 h, 3 µM): 1.553
Z score (168 h, 3 µM): 1.553

LY-310,762 hydrochloride
Z Score: 0.05111
Z score [1]: 0.051
Activity [9]: no

Cl.O=C(O)C1=CCCN(CCON=C(c2ccccc2)c2ccccc2)C1 [NO-711 hydrochloride]
Z Score: −0.4618
Z score [1]: −0.462
Activity [6]: no

CN(C)CCCCSC(=N)N.Cl.Cl [SKF 91488 dihydrochloride]
Z Score: −0.766
Z score [1]: −0.766
Activity [2]: no

CC[N+](CC)(CC)CC.[Cl-] [Tetraethylammonium chloride]
Activity: no
Z Score: 0.123
Z score: 0.123

CCCCS(=N)(=O)CCC(N)C(=O)O [L-Buthionine-sulfoximine]
Z Score [3]: 0.5134
Z score [4]: 0.513
Activity [5]: no

S(−)-Atenolol
Z Score [3]: 0.617
Z score [10]: 0.617
Activity [11]: no

O=C(CCNNC(=O)c1ccncc1)NCc1ccccc1 [Nialamide]
Z Score [3]: −0.02937
Z score [1]: −0.029
Activity [6]: no

C[N+](C)(C)CC=O [Betaine aldehyde chloride]
Activity: no
Z Score (168 h, 3 µM): −0.07007
Z score (168 h, 3 µM): −0.070

CC(=O)N[C@@H](CS)C(=O)O [N-Acetyl-L-Cysteine]
Z Score [8]: −1.621
Z score [10]: −1.621
Activity [11]: no

CC(C)NCC(O)c1ccc(O)c(O)c1.Cl (racemic) [(±)-Isopoterenol hydrochloride]
Z score [1]: −0.572
Activity [5]: no

CCCCc1ccc(C(=O)O)nc1 [Fusaric acid]
Z Score: −0.1413
Z score [1]: −0.141

CC(C)C1C2CCC(C2)C1N.Cl (stereo not drawn) [AGN 192403 hydrochloride]
Z Score: 0.7032
Z score [10]: 0.703
Activity [11]: no

CC(C)NCC(O)c1ccc(NS(C)(=O)=O)cc1.Cl (stereo not drawn) [(B1)-Sotalol hydrochloride]
Z Score: −0.813

CC(C)(C)c1ccc(S(=O)(=O)/C=C/C#N)cc1 [Bay 11-7085]
Z Score: 2.18
Z score [4]: 2.180
Activity [5]: no

COc1ccccc1N1CCN(CCCNc2c(C)c(=O)n(C)c(=O)n2C)CC1 [Urapidil, 5-Methyl-]
Z Score [7]: −0.7831
Z score [10]: −0.783
Activity [11]: no

N#CC(C#N)=C(N)/C(C#N)=C/c1ccc(O)cc1 [Tyrphostin AG 112]
Z Score [3]: 0.3333
Z score [1]: 0.333
Activity [2]: no

O=C(CCCN1CCC2(CC1)C(=O)NCN2c1ccccc1)c1ccc(F)cc1 [Spiperone hydrochloride]
Z Score [7]: −0.5168
Z score [1]: −0.517
Activity [2]: no

O=C1Nc2ccccc2/C1=C1/Nc2ccccc2/C1=N\O [Indirubin-3′-oxime]
Z Score [7]: −0.3965
Z score [1]: −0.397
Activity [5]: no

CCCCCCCCCCCCCCCCCC(=O)OC(CC(=O)O)C[N+](C)(C)C.[Cl-] (racemic) [DL-Stearoylcarnitine chloride]
Z Score: 0.6378
Z score [1]: 0.638
Activity [2]: no

CCN(CC)C(=O)c1ccc(O)c(OC)c1 [Vanillic acid diethylamide]
Z Score [7]: −0.5948
Z score [4]: −0.595
Activity [5]: no

SKF 83565 hydrobromide
Activity [2]: no

C[C@]12C=CC(=O)C=C1CC[C@H]1[C@@H]3C[C@@H](O)[C@](O)(C(=O)CO)[C@@]3(C)C[C@H](O)[C@@]12F [Triamcinolone]
Activity: no
Z Score [7]: −0.184
Z score [1]: −0.184

COCc1nc2c([nH]1)c(=O)n(C)c(=O)n2CC(C)C [8-Methoxymethyl-3-isobutyl-1-methylxanthine]
Z Score [7]: −0.3403
Z score [1]: −0.340
Activity [6]: no

COc1cc([C@@H]2c3cc4c(cc3[C@H](O)[C@H]3COC(=O)[C@H]23)OCO4)cc(OC)c1OC [Podophyllotoxin]
Z Score: −11.15
Z score [1]: −11.147
Activity [9]: yes

O=c1onc2n1-c1cc(Br)ccc1OC2 [NS 2028]
Z Score: −2.684
Z score [1]: −2.684
Activity [6]: yes

COc1cc(NS(C)(=O)=O)ccc1Nc1c2ccccc2nc2ccccc12 [Amsacrine hydrochloride]
Z Score [8]: −11.27
Z score [1]: −11.274
Activity [6]: yes

Nc1ccc(S(=O)(=O)Nc2ccnn2-c2ccccc2)cc1 [Sulfaphenazole]
Z Score [8]: −1.362
Z score [1]: −1.362
Activity [2]: no

C[N+]1(C)CCC(OC(=O)C(c2ccccc2)c2ccccc2)CC1.[I-] [4-DAMP methiodide]
Z Score [3]: 0.3311
Z score [4]: 0.331
Activity [5]: no

O=C1NC(=O)C(c2ccccc2[N+](=O)[O-])=C1Nc1ccc(O)c(Cl)c1 [SB 415286]
Z Score: −2.87
Z score [1]: −2.870

Nc1ccc2c3c(cccc13)C(=O)NC2=O [4-Amino-1,8-naphthalimide]
Z Score [12]: 1.875
Z score [1]: 1.875
Activity [2]: no

N[C@H](C(=O)O)c1cc(O)cc(O)c1 [(S)-3,5-Dihydroxyphenylglycine]
Z Score [7]: −0.3364

C#CCN(C)CCCOc1ccc(Cl)cc1Cl [Clorgyline hydrochloride]
Activity: no
Z Score [12]: 1.52
Z score [1]: 1.520

CC(=O)[C@H]1CC[C@H]2[C@@H]3CC[C@H]4C[C@H](O)CC[C@]4(C)[C@H]3CC[C@]12C [5alpha-Pregnan-3alpha-ol-20-one]
Z Score: 0.9335
Z score [1]: 0.934
Activity [2]: no

CCCCCN(CCCCC)C(=O)C(CCC(=O)O)NC(=O)c1ccc(Cl)c(Cl)c1 (stereo not drawn) [Lorglumide sodium]
Z Score [8]: −2.092
Z score [1]: −2.092
Activity [6]: no

NCCCC(=O)O [GABA]
Z Score: −0.4389
Z score [10]: −0.439
Activity [11]: no

CCCCN1CCC(COC(=O)c2cc(Cl)c(N)c3c2OCCO3)CC1.Cl [SB 204070 hydrochloride]
Z Score: −5.886
Z score [1]: −5.886
Activity [9]: yes

O=C(O)C1CN(CCCP(=O)(O)O)CCN1 (stereo not drawn) [(B1)-CPP]
Z Score: 0.3213

COC(=O)c1cc2c(cn1)[nH]c1ccccc12 [Methyl beta-carboline-3-carboxylate]
Z Score: 0.06023
Z score [1]: 0.060
Activity [5]: no

CP(=O)(O)CCCN.Cl [SKF 97541 hydrochloride]
Z Score: −0.7355
Z score [10]: −0.736
Activity [11]: no

CP(=O)(O)C1=CCNCC1 [TPMPA]
Z Score: 0.8742
Z score [10]: 0.874
Activity [11]: no

CO/N=C(\C(=O)N[C@@H]1C(=O)N2C(C(=O)O)=C(CSc3nc(=O)c(=O)[nH]n3C)CS[C@H]12)c1csc(N)n1 [Ceftriaxone sodium]
Activity: no
Z Score [12]: 2.23
Z score [1]: 2.230

Cn1cnc2c1c(=O)[nH]c(=O)n2C [Theobromine]
Z Score (168 h, 3 µM): −1.392
Z score (168 h, 3 µM): −1.392
Activity [11]: no

N[C@@H](Cn1oc(=O)[nH]c1=O)C(=O)O [(+)-Quisqualic acid]
Z Score: 0.4361
Z score [1]: 0.436
Activity [2]: no

CCCCC#Cc1nc(N)c2ncn([C@@H]3O[C@H](C(=O)NCC)[C@@H](O)[C@H]3O)c2n1 [HE-NECA]
Z Score: −2.504
Z score [1]: −2.504
Activity [9]: yes

CCCCCCN(CCCCCC)C(=O)Cc1c(-c2ccc(F)cc2)[nH]c2ccccc12 [N,N-Dihexyl-2-(4-fluorophenyl)indole-3-acetamide]
Z Score (168 h, 3 µM): 1.916
Z score (168 h, 3 µM): 1.916
Activity [5]: no

Cc1c2ccncc2c(C)c2c1[nH]c1ccccc12 [Ellipiticine]
Z score [1]: −8.321
Activity [6]: yes

COc1cc2c(cc1O)CC[C@@H]1[C@@H]2CC[C@]2(C)[C@@H](O)CC[C@@H]12 [2-methoxyestradiol]
Z Score [7]: −0.9833
Z score [1]: −0.983
Activity [6]: no

(−)-MK-801 hydrogen maleate
Z Score: 1.133
Z score [1]: 1.133
Activity [6]: no

CNCCCC1c2ccccc2C=Cc2ccccc21 [Protriptyline hydrochloride]
Z Score [3]: 0.7603
Z score [1]: 0.760
Activity [2]: no
